Assay results taken from patent US9139566B2, “Fluorine-18 and carbon-11 labeled radioligands for positron emission tomography (PET) imaging for LRRK2” (Genentech, Inc., priority 2011, dated 2015).

Each compound was assayed against LRRK2 (Homo sapiens, UniProt Q5S007) (assay: LRRK2 affinity (Ki)). Conditions: LRRK2 affinity (micromolar), Table 1.
Chain of LRRK2 (Q5S007 whole entry): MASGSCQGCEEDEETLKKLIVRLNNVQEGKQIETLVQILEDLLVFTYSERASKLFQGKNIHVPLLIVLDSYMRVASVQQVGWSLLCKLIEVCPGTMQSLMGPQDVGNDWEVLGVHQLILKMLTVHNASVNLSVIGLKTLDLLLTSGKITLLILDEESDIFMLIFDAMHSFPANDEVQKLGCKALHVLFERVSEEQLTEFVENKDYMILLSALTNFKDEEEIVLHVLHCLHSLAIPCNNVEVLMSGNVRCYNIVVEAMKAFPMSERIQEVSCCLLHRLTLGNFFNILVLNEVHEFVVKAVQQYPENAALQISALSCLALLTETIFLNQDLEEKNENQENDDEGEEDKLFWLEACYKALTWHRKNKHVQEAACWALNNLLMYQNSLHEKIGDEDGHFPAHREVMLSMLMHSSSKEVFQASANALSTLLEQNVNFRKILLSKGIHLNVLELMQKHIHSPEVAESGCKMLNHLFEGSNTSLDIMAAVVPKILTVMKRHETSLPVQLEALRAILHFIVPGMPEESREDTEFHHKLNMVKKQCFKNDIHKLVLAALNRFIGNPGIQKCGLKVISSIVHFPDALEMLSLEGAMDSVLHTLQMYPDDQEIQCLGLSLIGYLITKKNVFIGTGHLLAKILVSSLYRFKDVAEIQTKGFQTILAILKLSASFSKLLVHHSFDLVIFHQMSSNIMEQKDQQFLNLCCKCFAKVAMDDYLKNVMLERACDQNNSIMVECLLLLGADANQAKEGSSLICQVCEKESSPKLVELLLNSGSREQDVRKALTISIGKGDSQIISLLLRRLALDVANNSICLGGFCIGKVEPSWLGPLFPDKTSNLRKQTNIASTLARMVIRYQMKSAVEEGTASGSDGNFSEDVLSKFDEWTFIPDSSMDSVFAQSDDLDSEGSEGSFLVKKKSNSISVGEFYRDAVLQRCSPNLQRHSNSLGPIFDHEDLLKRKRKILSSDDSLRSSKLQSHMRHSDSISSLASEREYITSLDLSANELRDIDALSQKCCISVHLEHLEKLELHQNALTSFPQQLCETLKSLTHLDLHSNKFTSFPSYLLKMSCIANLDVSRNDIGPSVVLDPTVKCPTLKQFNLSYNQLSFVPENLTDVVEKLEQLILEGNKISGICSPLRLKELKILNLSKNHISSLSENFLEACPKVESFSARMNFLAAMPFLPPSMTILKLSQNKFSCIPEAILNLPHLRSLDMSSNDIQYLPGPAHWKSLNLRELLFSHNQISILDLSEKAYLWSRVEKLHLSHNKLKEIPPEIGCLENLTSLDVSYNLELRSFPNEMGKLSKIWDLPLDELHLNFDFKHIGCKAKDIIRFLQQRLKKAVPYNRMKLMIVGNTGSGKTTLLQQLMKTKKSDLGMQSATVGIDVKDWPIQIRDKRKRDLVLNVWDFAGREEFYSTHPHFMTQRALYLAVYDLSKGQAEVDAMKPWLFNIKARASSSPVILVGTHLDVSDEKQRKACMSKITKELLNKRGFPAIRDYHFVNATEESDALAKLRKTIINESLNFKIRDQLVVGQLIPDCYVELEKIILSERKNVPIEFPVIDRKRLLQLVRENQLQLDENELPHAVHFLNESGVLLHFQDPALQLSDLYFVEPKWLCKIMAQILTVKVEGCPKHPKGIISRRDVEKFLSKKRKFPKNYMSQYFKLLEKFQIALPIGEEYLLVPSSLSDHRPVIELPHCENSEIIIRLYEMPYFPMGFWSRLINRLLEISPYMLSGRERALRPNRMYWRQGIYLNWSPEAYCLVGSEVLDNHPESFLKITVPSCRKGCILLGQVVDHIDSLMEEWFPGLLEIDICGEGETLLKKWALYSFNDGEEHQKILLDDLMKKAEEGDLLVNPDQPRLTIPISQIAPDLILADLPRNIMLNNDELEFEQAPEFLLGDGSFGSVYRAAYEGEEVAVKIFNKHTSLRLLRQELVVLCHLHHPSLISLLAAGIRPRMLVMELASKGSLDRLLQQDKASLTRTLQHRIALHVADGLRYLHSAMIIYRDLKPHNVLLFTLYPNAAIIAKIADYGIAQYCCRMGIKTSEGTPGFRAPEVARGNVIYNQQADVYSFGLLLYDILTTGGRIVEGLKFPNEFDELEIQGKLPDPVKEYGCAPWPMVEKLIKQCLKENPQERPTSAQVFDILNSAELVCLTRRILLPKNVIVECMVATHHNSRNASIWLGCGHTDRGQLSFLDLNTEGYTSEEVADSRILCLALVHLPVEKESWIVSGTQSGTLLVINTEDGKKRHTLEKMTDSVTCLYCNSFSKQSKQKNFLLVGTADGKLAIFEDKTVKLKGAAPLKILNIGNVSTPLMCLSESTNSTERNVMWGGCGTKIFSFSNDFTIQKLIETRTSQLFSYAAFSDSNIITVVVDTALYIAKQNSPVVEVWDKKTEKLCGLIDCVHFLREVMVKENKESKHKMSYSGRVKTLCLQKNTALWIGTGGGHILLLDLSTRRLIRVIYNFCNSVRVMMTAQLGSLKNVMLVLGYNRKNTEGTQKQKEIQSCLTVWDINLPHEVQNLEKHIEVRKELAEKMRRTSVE
Format: binding
Compound `O=C(c1cc(OCCF)c(Nc2ncc(C(F)(F)F)c(NC3CC3)n2)cc1F)N1CCOCC1` [Compound 1, (4-(4-(cyclopropylamino)-5-(trifluoromethyl)pyrimidin-2-ylamino)-2-fluoro-5-(2-fluoroethoxy)phenyl)(morpholino) methanone] has a Ki of 0.6 nM.
With `CNc1nc(Nc2cc(C)c(C(=O)N3CCOCC3)cc2OCF)ncc1C(F)(F)F` [Compound 2, (5-(fluoromethoxy)-2-methyl-4-(4-(methylamino)-5-(trifluoromethyl)pyrimidin-2-ylamino)phenyl)(morpholino) methanone] the Ki was 1 nM.
Compound `CCNc1nc(Nc2cc(OCF)c(C(=O)N3CCCC3)cc2Cl)ncc1C(F)(F)F` [Compound 5, (5-chloro-4-(4-(ethylamino)-5-(trifluoromethyl)pyrimidin-2-ylamino)-2-(fluoromethoxy)phenyl)(pyrrolidin-1-yl)methanone] has a Ki of 1.5 nM.
`CCNc1nc(Nc2cc(OC)c(C(=O)N3CCC(F)(F)C3)cc2OCF)ncc1C(F)(F)F` [Compound 6, (3,3-difluoropyrrolidin-1-yl)(4-(4-(ethylamino)-5-(trifluoromethyl)pyrimidin-2-ylamino)-5-(fluoromethoxy)-2-methoxyphenyl)methanone] was tested, and the Ki was 0.4 nM.
`CNc1nc(Nc2cc(C)c(C(=O)N3CCCC3)cc2OCF)ncc1C(F)(F)F` [Compound 7, (5-(fluoromethoxy)-2-methyl-4-(4-(methylamino)-5-(trifluoromethyl)pyrimidin-2-ylamino)phenyl)(pyrrolidin-1-yl)methanone] was tested, and the Ki was 0.7 nM.
Work on `CCNc1nc(Nc2cc(OC)c(C(=O)N3CCC(F)(F)C3)cc2OC)ncc1C(F)(F)F` [Compound 8, (3,3-difluoropyrrolidin-1-yl)(4-(4-(ethylamino)-5-(trifluoromethyl)pyrimidin-2-ylamino)-2,5-dimethoxyphenyl)methanone] yielded a Ki of 1.1 nM.
Work on `CNc1nc(Nc2cc(OC)c(C(=O)N3CCC(F)(F)C3)cc2OCCF)ncc1C(F)(F)F` [Compound 9, (3,3-difluoropyrrolidin-1-yl)(5-(2-fluoroethoxy)-2-methoxy-4-((4-(methylamino)-5-(trifluoromethyl)pyrimidin-2-yl)amino)phenyl)methanone] yielded a Ki of 1.5 nM.
Compound `CCNc1nc(Nc2cc(F)c(CN3CCOCC3)cc2OCCF)ncc1C(F)(F)F` [Compound 10, N4-ethyl-N2-(5-fluoro-2-(2-fluoroethoxy)-4-(morpholinomethyl)phenyl)-5-(trifluoromethyl)pyrimidine-2,4-diamine] has a Ki of 1.5 nM.
`CNc1nc(Nc2cc(OC)c(C(=O)N3CCCCC3)cc2OCF)ncc1C(F)(F)F` [Compound 11, (5-(fluoromethoxy)-2-methoxy-4-(4-(methylamino)-5-(trifluoromethyl)pyrimidin-2-ylamino)phenyl)(piperidin-1-yl)methanone] showed a Ki of 1.6 nM.
Compound `CCNc1nc(Nc2cc(F)c(C(=O)N3CCOCC3)cc2OCCF)ncc1C(F)(F)F` [Compound 12, (4-(4-(ethylamino)-5-(trifluoromethyl)pyrimidin-2-ylamino)-2-fluoro-5-(2-fluoroethoxy)phenyl)(morpholino) methanone] has a Ki of 2 nM.
For `CNc1nc(Nc2cc(C)c(C(=O)N3CCOCC3)cc2OCCF)ncc1C(F)(F)F` [Compound 13, (5-(2-fluoroethoxy)-2-methyl-4-(4-(methylamino)-5-(trifluoromethyl)pyrimidin-2-ylamino)phenyl)(morpholino) methanone], the Ki was 2.3 nM.
For `CNc1nc(Nc2cc(OC)c(C(=O)N3CCCC3)cc2OCF)ncc1C(F)(F)F` [Compound 14, (5-(fluoromethoxy)-2-methoxy-4-(4-(methylamino)-5-(trifluoromethyl)pyrimidin-2-ylamino)phenyl)(pyrrolidin-1-yl)methanone], the Ki was 3.2 nM.
Compound `CNc1nc(Nc2ccc(S(C)(=O)=O)cc2OCCF)ncc1C(F)(F)F` [Compound 15, N2-(2-(2-fluoroethoxy)-4-(methylsulfonyl)phenyl)-N4-methyl-5-(trifluoromethyl)pyrimidine-2,4-diamine] has a Ki of 3.3 nM.
Work on `CCNc1nc(Nc2cc(OCF)c(C(=O)N3CCCC3)cc2F)ncc1C(F)(F)F` [Compound 16, (4-(4-(ethylamino)-5-(trifluoromethyl)pyrimidin-2-ylamino)-5-fluoro-2-(fluoromethoxy)phenyl)(pyrrolidin-1-yl)methanone] yielded a Ki of 3.4 nM.
In the case of `CNc1nc(Nc2cc(F)c(C(=O)N3CCOCC3)cc2OCCF)ncc1C(F)(F)F` [Compound 17, (2-fluoro-5-(2-fluoroethoxy)-4-(4-(methylamino)-5-(trifluoromethyl)pyrimidin-2-ylamino)phenyl)(morpholino) methanone], the Ki is reported as 3.5 nM.
For `CNc1nc(Nc2cc(F)c(CN3CCOCC3)cc2OCCF)ncc1C(F)(F)F` [Compound 18, N2-(5-fluoro-2-(2-fluoroethoxy)-4-(morpholinomethyl)phenyl)-N4-methyl-5-(trifluoromethyl)pyrimidine-2,4-diamine], the Ki was 3.7 nM.
`CNc1nc(Nc2cc(OC)c(C(=O)N(C)C)cc2OCF)ncc1C(F)(F)F` [Compound 19, 5-(fluoromethoxy)-2-methoxy-N,N-dimethyl-4-(4-(methylamino)-5-(trifluoromethyl)pyrimidin-2-ylamino)benzamide] was tested, and the Ki was 4 nM.
For `CNc1nc(Nc2cc(OC)c(C(=O)N3CCCC3)cc2OCCF)ncc1C(F)(F)F` [Compound 20, (5-(2-fluoroethoxy)-2-methoxy-4-(4-(methylamino)-5-(trifluoromethyl)pyrimidin-2-ylamino)phenyl)(pyrrolidin-1-yl)methanone], the Ki was 4.7 nM.
With `CNc1nc(Nc2ccc(CN3CCOCC3)cc2OCCF)ncc1C(F)(F)F` [Compound 21, N2-(2-(2-fluoroethoxy)-4-(morpholinomethyl)phenyl)-N4-methyl-5-(trifluoromethyl)pyrimidine-2,4-diamine] the Ki was 6.6 nM.
With `CNc1nc(Nc2cc(F)c(C(=O)N3CCCC3)cc2OCF)ncc1C(F)(F)F` [Compound 22, (2-fluoro-5-(fluoromethoxy)-4-(4-(methylamino)-5-(trifluoromethyl)pyrimidin-2-ylamino)phenyl)(pyrrolidin-1-yl)methanone] the Ki was 6.5 nM.
`COc1nc(Nc2cc(C)c(C(=O)N3CCCC3)cc2OCF)ncc1Cl` [Compound 24, (4-(5-chloro-4-methoxypyrimidin-2-ylamino)-5-(fluoromethoxy)-2-methylphenyl)(pyrrolidin-1-yl)methanone] gave a Ki of 11 nM.
Work on `COc1nc(Nc2ccc(CN3CCOCC3)cc2OCCF)ncc1Cl` [Compound 25, 5-chloro-N-(2-(2-fluoroethoxy)-4-(morpholinomethyl)phenyl)-4-methoxypyrimidin-2-amine] yielded a Ki of 12 nM.
For `COc1nc(Nc2ccc(S(C)(=O)=O)cc2OCCF)ncc1Cl` [Compound 26, 5-chloro-N-(2-(2-fluoroethoxy)-4-(methylsulfonyl)phenyl)-4-methoxypyrimidin-2-amine], the Ki was 12 nM.
`CNc1nc(Nc2ccc(S(C)(=O)=O)cc2OCCF)ncc1Cl` [Compound 27, 5-chloro-N2-(2-(2-fluoroethoxy)-4-(methylsulfonyl)phenyl)-N4-methylpyrimidine-2,4-diamine] gave a Ki of 12 nM.
Work on `COc1nc(Nc2ccc(C(=O)N3CCOCC3)cc2OCCF)ncc1Cl` [Compound 28, (4-(5-chloro-4-methoxypyrimidin-2-ylamino)-3-(2-fluoroethoxy)phenyl)(morpholino) methanone] yielded a Ki of 15 nM.
`CNc1nc(Nc2cnc(N3CCOCC3)cc2OCCF)ncc1C(F)(F)F` [Compound 29, N2-(4-(2-fluoroethoxy)-6-morpholinopyridin-3-yl)-N4-methyl-5-(trifluoromethyl)pyrimidine-2,4-diamine] was tested, and the Ki was 21 nM.
Compound `CNc1nc(Nc2ccc(C(=O)N3CCOCC3)cc2OCCF)ncc1C(F)(F)F` [Compound 30, (3-(2-fluoroethoxy)-4-(4-(methylamino)-5-(trifluoromethyl)pyrimidin-2-ylamino)phenyl)(morpholino) methanone] has a Ki of 2.3 nM.
With `CNc1nc(Nc2cnn(C3CCN(CCF)CC3)c2C)ncc1C(F)(F)F` [Compound 31, N2-(1-(1-(2-fluoroethyl)piperidin-4-yl)-5-methyl-1H-pyrazol-4-yl)-N4-methyl-5-(trifluoromethyl)pyrimidine-2,4-diamine] the Ki was 4.2 nM.
`COc1nc(Nc2cnn(C3CCN(CCF)CC3)c2C)ncc1Cl` [Compound 32, 5-chloro-N-(1-(1-(2-fluoroethyl)piperidin-4-yl)-5-methyl-1H-pyrazol-4-yl)-4-methoxypyrimidin-2-amine] was tested, and the Ki was 21 nM.
Compound `CNc1nc(Nc2cn(C3CCN(CCF)CC3)nc2C)ncc1C(F)(F)F` [Compound 33, N2-(1-(1-(2-fluoroethyl)piperidin-4-yl)-3-methyl-1H-pyrazol-4-yl)-N4-methyl-5-(trifluoromethyl)pyrimidine-2,4-diamine] has a Ki of 25 nM.
`CNc1nc(Nc2cnn(C)c2CF)ncc1C(F)(F)F` [Compound 34, N2-(5-(fluoromethyl)-1-methyl-1H-pyrazol-4-yl)-N4-methyl-5-(trifluoromethyl)pyrimidine-2,4-diamine] showed a Ki of 24 nM.
`CNc1nc(Nc2cn(CCF)nc2C)ncc1C(F)(F)F` [Compound 35, N2-(1-(2-fluoroethyl)-3-methyl-1H-pyrazol-4-yl)-N4-methyl-5-(trifluoromethyl)pyrimidine-2,4-diamine] was tested, and the Ki was 1.1 nM.
`CNc1nc(Nc2cnn(CCF)c2C)ncc1C(F)(F)F` [Compound 36, N2-(1-(2-fluoroethyl)-5-methyl-1H-pyrazol-4-yl)-N4-methyl-5-(trifluoromethyl)pyrimidine-2,4-diamine] was tested, and the Ki was 1.8 nM.
Compound `CNc1nc(Nc2ccc(C(=O)N3CCOCC3)cc2OC)ncc1C(F)(F)F` [Compound 38, (3-methoxy-4-(4-(methylamino)-5-(trifluoromethyl)pyrimidin-2-ylamino)phenyl)(morpholino) methanone] has a Ki of 2.7 nM.
`COc1nc(Nc2ccc(C(=O)N3CCOCC3)cc2OCCF)ncc1Cl` [Compound 40, (4-((5-chloro-4-methoxypyrimidin-2-yl)amino)-3-(2-fluoroethoxy)phenyl)(morpholino) methanone] showed a Ki of 14 nM.
In the case of `[2H]C([2H])(F)C([2H])([2H])n1ncc(Nc2ncc(C(F)(F)F)c(NC)n2)c1C` [Compound 48, N2-(1-(2-fluoro-1,1,2,2-tetradeutero-ethyl)-5-methyl-1H-pyrazol-4-yl)-N4-methyl-5-(trifluoromethyl)pyrimidine-2,4-diamine], the Ki is reported as 2 nM.
